How the values were obtained:
[1] = molecular target: GST-tagged KRAS-G12D (2-169) (Homo sapiens, UniProt P01116, G12D); test: Nucleotide exchange assay (NEA), SOS-mediated, HTRF, KRAS G12D; assay type: biochemical; conditions: Table 4; IC50 extracted at 30 min; 20 nM SOScat; read-out: NEA G12D IC50
Description: (§1) This activity is tightly regulated by GTPase activating proteins (GAPs) and guanine nucleotide exchange factors (GEFs). GEFs, such as SOS1/2, activate Ras proteins by exchanging GDP for GTP, thus returning Ras to its active conformation (Simanshu, Nissley, & McCormick, 2017). […] Homogenous time resolved fluorescence (HTRF) was used to detect SOS-mediated binding of a fluorescent GTP analog, GTP-DY-647P1 (Jena Biosciences NU-820-647P1) to GST-tagged KRAS-G12D (2-169) or to GST-tagged KRAS-G12V (2-169, Reaction Biology, MSC-11-540).
(§2) GST-tagged KRAS-G12D (2-169) and anti-GST MAb Tb Cryptate Gold (CisBio 61GSTTLB) were diluted into assay buffer (20 mM HEPES, pH 7.3, 150 mM NaCl, 5 mM MgCl2, 0.05% BSA 0.0025% NP40, 1 mM DTT) to prepare a 2.5× donor solution. 5× compound was added to the protein mixture and incubated for 1 h at RT. 2.5× acceptor solution containing SOS1cat (564-1049, Reaction Biology MSC-11-502) and GTP-DY-647P1 were then added to the donor KRAS mixture such that the final concentration of the reaction contained 0.25 nM GST-tagged KRAS-G12D (2-169), 20 nM SOScat, and 150 nM GTP-DY-647P1. The reaction was monitored using at RT with the Envision multimode plate reader (Ex/Em 337/665, […]) up to 90 minutes at 5 minute intervals. To monitor KRAS-G12V SOS-mediated nucleotide exchange, 80 nM SOS was added to reaction instead of 20 nM. All other components were the same as previously described. Data was blanked to reactions without SOS1 and % inhibition was calculated such that DMSO only =0% and blank=100%. Curve fitting was done using a 4 parameter fit. Reported IC50 values were extracted at 30 min and 90 min for the KRAS-G12D and KRAS-G12V assays, respectively.
NEA KRAS G12D IC50 (uM) values of selected compounds are depicted in Table 2 with compounds having a value <0.01 uM as ++++; ≥0.01 uM to 0.1 uM as +++; ≥0.1 uM to 1 uM as ++; ≥1 uM to 20 uM as +; and ≥20 uM as NA.

[2] = molecular target: GST-tagged KRAS-G12V (2-169) (Homo sapiens, UniProt P01116, G12V); test: Nucleotide exchange assay (NEA), SOS-mediated, HTRF, KRAS G12V; assay type: biochemical; conditions: Table 4; IC50 extracted at 90 min; 80 nM SOS
Description: as §1, §2

Chain of GST-tagged KRAS-G12D (2-169) (P01116 2-169 isoform P01116-2 G12D): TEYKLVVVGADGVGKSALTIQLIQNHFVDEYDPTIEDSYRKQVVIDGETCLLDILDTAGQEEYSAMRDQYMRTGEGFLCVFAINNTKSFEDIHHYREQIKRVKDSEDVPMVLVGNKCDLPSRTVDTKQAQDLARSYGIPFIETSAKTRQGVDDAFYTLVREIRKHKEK
Chain of GST-tagged KRAS-G12V (2-169) (P01116 2-169 isoform P01116-2 G12V): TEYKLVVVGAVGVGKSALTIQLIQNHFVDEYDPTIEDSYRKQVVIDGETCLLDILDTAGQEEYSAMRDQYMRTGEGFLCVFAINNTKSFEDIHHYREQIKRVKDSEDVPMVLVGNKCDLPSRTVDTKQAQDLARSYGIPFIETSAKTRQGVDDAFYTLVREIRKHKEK

`CC(O)CN(c1nc(OC[C@@]23CCCN2C[C@H](F)C3)nc(N2CC3(C2)SCc2sc(N)c(C#N)c23)n1)C1(C#N)CC1` (stereo partly drawn) [Compound 261, 2-amino-1′-[4-[(1-cyanocyclopropyl)-(2-hydroxypropyl)amino]-6-[[(2R,8S)-2-fluoro-1,2,3,5,6,7-hexahydropyrrolizin-8-yl]methoxy]-1,3,5-triazin-2-yl]spiro[6H-thieno[3,4-b]thiophene-4,3′-azetidine]-3-carbonitrile] was tested, and the IC50 [1] was less than 0.01 µM and the IC50 [2] was less than 0.01 µM.

With `N#Cc1c(N)sc2c1C1(CN(c3nc(OCC45CCCN4CC(F)C5)nc(N4C5CCC4C(O)C5)n3)C1)SC2` (mixture of isomers) [Compound 282, 2-amino-1′-[4-[[(2R,8S)-2-fluoro-1,2,3,5,6,7-hexahydropyrrolizin-8-yl]methoxy]-6-[(1RS,2SR,4SR)-2-hydroxy-7-azabicyclo[2.2.1]heptan-7-yl]-1,3,5-triazin-2-yl]spiro[6H-thieno[3,4-b]thiophene-4,3′-azetidine]-3-carbonitrile] the IC50 [1] was 0.1 to 1 µM and the IC50 [2] was 0.01 to 0.1 µM.

`C[C@@]1(O)CCCN(c2nc(OC[C@]34CCCN3[C@H](COc3cc(C(F)(F)F)ncn3)CC4)nc(N3CC4(C3)SCc3sc(N)c(C#N)c34)n2)C1` (racemic) [Compound 252, 2-amino-1′-[4-[(3R)-3-hydroxy-3-methyl-1-piperidyl]-6-[[(3SR,8RS)-3-[[6-(trifluoromethyl)pyrimidin-4-yl]oxymethyl]-1,2,3,5,6,7-hexahydropyrrolizin-8-yl]methoxy]-1,3,5-triazin-2-yl]spiro[6H-thieno[3,4-b]thiophene-4,3′-azetidine]-3-carbonitrile] was tested, and the IC50 [1] was less than 0.01 µM and the IC50 [2] was less than 0.01 µM.

`CN(CC(=O)NC(=N)N)c1nc(OC[C@@]23CCCN2C[C@H](F)C3)nc(N2CC3(C2)SCc2sc(N)c(C#N)c23)n1` [Compound 215, 2-[[4-(2-amino-3-cyano-spiro[6H-thieno[3,4-b]thiophene-4,3′-azetidine]-1′-yl)-6-[[(2R,8S)-2-fluoro-1,2,3,5,6,7-hexahydropyrrolizin-8-yl]methoxy]-1,3,5-triazin-2-yl]-methyl-amino]-N-carbamimidoyl-acetamide] showed an IC50 [1] of 0.1 to 1 µM and an IC50 [2] of 0.1 to 1 µM.

`CN(c1nc(OC[C@@]23CCCN2C[C@H](F)C3)nc(N2CC3(CCc4sc(N)c(C#N)c43)C2)n1)C1CCOC1` (stereo partly drawn) [Compound 36, 2-amino-1′-[4-[[(2R,8S)-2-fluoro-1,2,3,5,6,7-hexahydropyrrolizin-8-yl]methoxy]-6-[methyl(tetrahydrofuran-3-yl)amino]-1,3,5-triazin-2-yl]spiro[5,6-dihydrocyclopenta[b]thiophene-4,3′-azetidine]-3-carbonitrile] gave an IC50 [1] of 0.1 to 1 µM and an IC50 [2] of 0.1 to 1 µM.

In the case of `CN(c1nc(OC[C@@]23CCCN2C[C@H](F)C3)nc(N2CC3(CCc4sc(N)c(C#N)c43)C2)n1)[C@H]1COC[C@H]1O` (racemic) [Compound 53, 2-amino-1′-[4-[[(2R,8S)-2-fluoro-1,2,3,5,6,7-hexahydropyrrolizin-8-yl]methoxy]-6-[[rac-(3S,4S)-4-hydroxytetrahydrofuran-3-yl]-methyl-amino]-1,3,5-triazin-2-yl]spiro[5,6-dihydrocyclopenta[b]thiophene-4,3′-azetidine]-3-carbonitrile], the IC50 [1] is reported as 1 to 20 µM and the IC50 [2] is reported as 0.1 to 1 µM.

`N#Cc1c(N)sc2c1C1(CN(c3nc(OC[C@@]45CCCN4C[C@H](F)C5)nc(N(CC(=O)O)Cc4cccnc4N)n3)C1)SC2` [Compound 187, 2-[[4-(2-amino-3-cyano-spiro[6H-thieno[3,4-b]thiophene-4,3′-azetidine]-1′-yl)-6-[[(2R,8S)-2-fluoro-1,2,3,5,6,7-hexahydropyrrolizin-8-yl]methoxy]-1,3,5-triazin-2-yl]-[(2-amino-3-pyridyl)methyl]amino]acetic acid] showed an IC50 [1] of 0.01 to 0.1 µM and an IC50 [2] of less than 0.01 µM.

`C[C@]1(CO)C[C@H](O)CN1c1nc(OC[C@@]23CCCN2C[C@H](F)C3)nc(N2CC3(CCc4sc(N)c(C#N)c43)C2)n1` [Compound 72, 2-amino-1′-[4-[[(2R,8S)-2-fluoro-1,2,3,5,6,7-hexahydropyrrolizin-8-yl]methoxy]-6-[(2R,4S)-4-hydroxy-2-(hydroxymethyl)-2-methyl-pyrrolidin-1-yl]-1,3,5-triazin-2-yl]spiro[5,6-dihydrocyclopenta[b]thiophene-4,3′-azetidine]-3-carbonitrile] was tested, and the IC50 [1] was 0.1 to 1 µM and the IC50 [2] was 0.1 to 1 µM.

In the case of `CCN(c1nc(OCC2(COC)CCCC2)nc(N2CC3(C2)SCc2sc(N)c(C#N)c23)n1)[C@H](C)c1cccnc1N` [Compound 222, 2-amino-1′-[4-[[(1R)-1-(2-amino-3-pyridyl)ethyl]-ethyl-amino]-6-[[1-(methoxymethyl)cyclopentyl]methoxy]-1,3,5-triazin-2-yl]spiro[6H-thieno[3,4-b]thiophene-4,3′-azetidine]-3-carbonitrile], the IC50 [1] is reported as 1 to 20 µM and the IC50 [2] is reported as 0.1 to 1 µM.

In the case of `N#Cc1c(N)sc2c1C1(CN(c3nc(OC[C@@]45CCCN4C[C@H](F)C5)nc(N(CCN)C4(C#N)CC4)n3)C1)SC2` [Compound 272, 2-amino-1′-[4-[2-aminoethyl-(1-cyanocyclopropyl)amino]-6-[[(2R,8S)-2-fluoro-1,2,3,5,6,7-hexahydropyrrolizin-8-yl]methoxy]-1,3,5-triazin-2-yl]spiro[6H-thieno[3,4-b]thiophene-4,3′-azetidine]-3-carbonitrile; formic acid], the IC50 [1] is reported as less than 0.01 µM and the IC50 [2] is reported as 0.01 to 0.1 µM.

Work on `CC(c1nccnc1O)N(C)c1nc(OC[C@@]23CCCN2C[C@H](F)C3)nc(N2CC3(CCc4sc(N)c(C#N)c43)C2)n1` (stereo partly drawn) [Compound 150, 2-amino-1′-[4-[[(2R,8S)-2-fluoro-1,2,3,5,6,7-hexahydropyrrolizin-8-yl]methoxy]-6-[1-(3-hydroxypyrazin-2-yl)ethyl-methyl-amino]-1,3,5-triazin-2-yl]spiro[5,6-dihydrocyclopenta[b]thiophene-4,3′-azetidine]-3-carbonitrile] yielded an IC50 [1] of 1 to 20 µM and an IC50 [2] of 0.1 to 1 µM.

Work on `COc1ccc(C(C)N(C)c2nc(OC[C@@]34CCCN3C[C@H](F)C4)nc(N3CC4(C3)SCc3sc(N)c(C#N)c34)n2)c(N)n1` (stereo partly drawn) [Compound 233, 2′-amino-1-(4-((1-(2-amino-6-methoxypyridin-3-yl)ethyl)(methyl)amino)-6-(((2R,7aS)-2-fluorotetrahydro-1H-pyrrolizin-7a(5H)-yl)methoxy)-1,3,5-triazin-2-yl)-6′H-spiro[azetidine-3,4′-thieno[3,4-b]thiophene]-3′-carbonitrile] yielded an IC50 [1] of 1 to 20 µM and an IC50 [2] of 0.1 to 1 µM.

`CC(=O)N1CCC(N(C)c2nc(OC[C@@]34CCCN3C[C@H](F)C4)nc(N3CC4(C3)SCc3sc(N)c(C#N)c34)n2)C1C` (stereo partly drawn) [Compound 260, 1′-[4-[(1-acetyl-2-methyl-pyrrolidin-3-yl)-methyl-amino]-6-[[(2R,8S)-2-fluoro-1,2,3,5,6,7-hexahydropyrrolizin-8-yl]methoxy]-1,3,5-triazin-2-yl]-2-amino-spiro[6H-thieno[3,4-b]thiophene-4,3′-azetidine]-3-carbonitrile] was tested, and the IC50 [1] was 0.1 to 1 µM and the IC50 [2] was 0.01 to 0.1 µM.

Compound `C[C@@]1(O)CCCN(c2nc(OC[C@@]34CCCN3C[C@H](F)C4)nc(N3CC4(C3)c3c(sc(N)c3C#N)CS4(=O)=O)n2)C1` (racemic) [Compound 113, 2-amino-5,5-dioxo-1′-[4-[[rac-(2R,8S)-2-fluoro-1,2,3,5,6,7-hexahydropyrrolizin-8-yl]methoxy]-6-[rac-(3R)-3-hydroxy-3-methyl-1-piperidyl]-1,3,5-triazin-2-yl]spiro[6H-thieno[3,4-b]thiophene-4,3′-azetidine]-3-carbonitrile] has an IC50 [1] of 0.1 to 1 µM and an IC50 [2] of 0.1 to 1 µM.

`N#Cc1c(N)sc2c1C1(CN(c3nc(OC[C@@]45CCCN4C[C@H](F)C5)nc(N4C5CNCC4CC(=O)C5)n3)C1)SC2` [Compound 276, 2-amino-1′-[4-[[(2R,8S)-2-fluoro-1,2,3,5,6,7-hexahydropyrrolizin-8-yl]methoxy]-6-(7-oxo-3,9-diazabicyclo[3.3.1]nonan-9-yl)-1,3,5-triazin-2-yl]spiro[6H-thieno[3,4-b]thiophene-4,3′-azetidine]-3-carbonitrile] showed an IC50 [1] of 0.1 to 1 µM and an IC50 [2] of 0.01 to 0.1 µM.

In the case of `N#Cc1c(N)sc2c1C1(CC2)CN(c2nc(OC[C@@]34CCCN3C[C@H](F)C4)nc(N(CCO)Cc3cc[nH]n3)n2)C1` [Compound 131, 2-amino-1′-[4-[[(2R,8S)-2-fluoro-1,2,3,5,6,7-hexahydropyrrolizin-8-yl]methoxy]-6-[2-hydroxyethyl(1H-pyrazol-5-ylmethyl)amino]-1,3,5-triazin-2-yl]spiro[5,6-dihydrocyclopenta[b]thiophene-4,3′-azetidine]-3-carbonitrile], the IC50 [1] is reported as 0.1 to 1 µM and the IC50 [2] is reported as 0.01 to 0.1 µM.

— patent publication US12421254B2, “KRAS modulators and uses thereof” (Quanta Therapeutics, Inc., priority 2023, dated 2025)
